Measurements from patent US20220257617A1, “COMPOSITIONS AND METHODS FOR KELOIDLESS HEALING” (priority 2017, published 2022).

How the values were obtained:
NIH 3T3 cells = test: Col1a1/Col3a1 mRNA expression in dermal fibroblasts (qRT-PCR); assay type: cell-based, mouse; conditions: for collagen transcription (Col1a1/Col3a1 mRNA): NIH 3T3 stimulated with 1 μM S1P for 24 hours in presence of 10 μM inhibitor
Protocol: Mouse dermal fibroblast NIH 3T3 cells were cultured in DMEM. To analyze the production of collagens, ascorbic acid 2-phosphate (Sigma-Aldrich) was added in culture medium to 0.2 mM of final concentration.
We performed sCA preparation as previously published (23). We mixed 4 μl of 1M CaCl2) with 2 μg of plasmid DNA in 1 mL of an inorganic solution (NaHCO3; 44 mM, NaH2PO4; 0.9 mM, CaCl2); 1.8 mM, pH 7.5), then incubated at 37° C. for 30 min. The solution was centrifuged at 12,000 rpm for 3 min, and the pellet was dissolved with DMEM. We sonicated the solution in a water bath for 10 min to generate sCA. Cells were cultured in 6 well plate for 24 hours, then incubated with sCA-DMEM solution for 6 hours. We changed medium into DMEM with 10% FBS and incubated for additional 48 hours, then collected for total RNA isolation.
Total RNA was extracted using TRIzol® Regent (Invitrogen). cDNA was then synthesized using High Capacity cDNA Reverse Transcription Kits (Applied Biosystems, Foster City, Calif.). qRT-PCR was performed using an CFX96 Real-Time System (Bio-Rad, Hercules, Calif.) with PowerUp SYBR Green master mix (Bio-Rad). GAPDH served as the internal control. Relative expression was calculated using the 2-ΔΔCt method with correction for different amplification efficiencies.

mouse excisional wound = test: Mouse excisional wound splinting model, wound area analysis; assay type: in vivo
From the text: Mouse excisional wound splinting model were generated as previously published 1. Mice were anesthetized using isoflurane and removed dorsal hair. Two of 5 mm-diameter full-thickness skin punches were created symmetrically besides the midline. 12 mm diameter circle-shaped silicon lubber splints in which 6 mm diameter circles were punched in center were used for wound splinting. […] were fixed with instant-bonding adhesive and sutures around wounds. After application with any ointment, dressings were performed with Tegaderm (3M, Maplewood, Minn.). S1P was purchased from Sigma-Aldrich (Carlsbad, Calif.). 1 mM S1P in 4% bovine serum albumin was prepared with sonication, diluted 1000-fold for 1 μM ointment or 10-fold for 100 μM ointment with Aquaphor® and mixed well. We generated sCA with 100 ug plasmid DNA and dissolved the sCA pellet with 50 μl PBS. Then we mixed all of the solution into 200 μl of Aquaphor®. We used 250 μl ointment for 4 wounds of 2 mice. Digital photo images were analyzed using GIMP 2.8 software. The pixels of wound area were normalized by those of inside area of silicon splint. Then, the ratios devised by wound area at day 0 were calculated.

[1] = test system: inflammatory cells in wound; test: Flow cytometry of cells separated from mouse wound tissues; assay type: in vivo; conditions: 1 uM S1P topical vs vehicle
From the text: Mouse excisional wound splinting model were generated as previously published 1. Mice were anesthetized using isoflurane and removed dorsal hair. Two of 5 mm-diameter full-thickness skin punches were created symmetrically besides the midline. 12 mm diameter circle-shaped silicon lubber splints in which 6 mm diameter circles were punched in center were used for wound splinting. […] were fixed with instant-bonding adhesive and sutures around wounds. After application with any ointment, dressings were performed with Tegaderm (3M, Maplewood, Minn.). We performed cell separation from mouse wound tissues as previously published^4. We digested the tissues cut into small pieces in DMEM with 10% FBS, 1.2 mg/ml hyaluronidase (Sigma Aldrich), 2 mg/ml collagenase (Sigma Aldrich), and 0.2 mg/ml DNase I (Sigma Aldrich) at 37° C. for 90 min. Cell pellets were resuspended in PBS with 2% FBS, incubated with anti-CD16/32 antibody (Biolegend, San Diego, Calif.) for 5 min to block Fcγ receptors. For inflammatory cell recruitment analysis, we stained with phycoerythrin (PE)-conjugated anti-Gr-1, allophycocyanin (APC)-conjugated anti-CD3a, PE/CY7 conjugated anti-CD4, or fluorescein isothiocyanate (FITC)-conjugated anti-CD8a antibody (CiteAb, Bath, UK) at 4° C. for 20 min. […] Cells were analyzed with FACSDiva (BD, San Jose, Calif.).

wound tissue = test: Immunohistochemistry of wounds (F4/80, Ki67, CD34); assay type: in vivo, mouse; conditions: 1 uM S1P topical vs vehicle, day 5 after punch
From the text: Mouse excisional wound splinting model were generated as previously published 1. Mice were anesthetized using isoflurane and removed dorsal hair. Two of 5 mm-diameter full-thickness skin punches were created symmetrically besides the midline. 12 mm diameter circle-shaped silicon lubber splints in which 6 mm diameter circles were punched in center were used for wound splinting. […] were fixed with instant-bonding adhesive and sutures around wounds. After application with any ointment, dressings were performed with Tegaderm (3M, Maplewood, Minn.). We performed H&E, Masson's trichrome staining on paraffin-embedded sections. We used primary antibodies against F4/80, Ki67 and CD34. Immunostaining was developed with VECTASTAIN Universal Elite ABC Kit (Vector, Burlingame, Calif.). We purchased all antibodies from Abcam (Cambridge, UK). We analyzed the results using ImageJ.

scar neovasculature = test: Neovasculature analysis in scars; assay type: in vivo, mouse; conditions: S1P treatment vs vehicle, Balb/c mice, at the point of epithelization
From the text: We performed neovasculature analysis using standard approaches.

scar = test: Scar thickness analysis (Masson's trichrome); assay type: in vivo, mouse; conditions: 1 μM S1P topical vs vehicle, at the point of epithelization
From the text: We performed H&E, Masson's trichrome staining on paraffin-embedded sections. We used primary antibodies against F4/80, Ki67 and CD34. Immunostaining was developed with VECTASTAIN Universal Elite ABC Kit (Vector, Burlingame, Calif.). We purchased all antibodies from Abcam (Cambridge, UK). We analyzed the results using ImageJ. We calculated scar thickness with Masson's trichrome stain images using ImageJ.

[2] = NIH 3T3 stimulated with exogenous S1P for 24 hours

Structure (SMILES)	collagen transcription (Col1a1/Col3a1 mRNA) (NIH 3T3 cells)	wound closure (mouse excisional wound; 1 μM S1P topical treatment vs control vehicle)	wound closure (mouse excisional wound; 100 μM S1P treatment, Balb/c mice)	wound closure (mouse excisional wound; high concentration S1P (100 PM) vs vehicle, C57BL6/J mice)	recruitment of granulocytes (Gr-1 positive cells) ([1]; day 2 after punch)	percentage of T cells in wounds ([1]; day 5 after punch)	angiogenesis (CD34 immunohistochemistry) (wound tissue)	cell proliferation (Ki67) (wound tissue)	neovasculatures in scars (scar neovasculature)	scar thickness (scar)	transcription of Col1a1 (NIH 3T3 cells; [2])	transcription of Col3a1 (NIH 3T3 cells; [2])
CCCCCCCCc1cccc(NC(=O)[C@H](N)COP(=O)(O)O)c1 [VPC23019, reference compound]	increased	–	–	–	–	–	–	–	–	–	–	–
CCCCCCCCCCCCC/C=C/[C@@H](O)[C@@H](N)COP(=O)(O)O [S1P, sphingosine-1-phosphate]	–	significantly promoted	significantly obstructed	no difference	does not influence	did not increase	promoting angiogenesis	no effect	confirmed the development of neovasculatures	statistically significant reduction in scar thickness were not obtained	inhibited	inhibited
Cc1nn(C)c2nc(NNC(=O)Nc3cc(Cl)nc(Cl)c3)cc(C(C)C)c12 [JTE013, reference compound]	increased	–	–	–	–	–	–	–	–	–	–	–
